One assay has as its system Septoria tritici. As to the kind of experiment: Comparative Example 1: activity against leaf blotch on wheat caused by Septoria tritici (microtiter plate). It counts as cell-based. The following applies: 7 days after inoculation.
For the next assay, the system named is Leptosphaeria nodorum. As to the kind of experiment: Comparative Example 2: activity against wheat leaf spots caused by Leptosphaeria nodorum (microtiter plate). The following applies: 7 days after inoculation. It counts as cell-based.
The test system of another assay is Botrytis cinerea. Description: Example 1: activity against the grey mold Botrytis cinerea in the microtiterplate test. It counts as cell-based. The note with it: 31 ppm, 7 days after inoculation, relative to active compound-free control (100%).
For another assay, the system named is Ustilago maydis. Description: Example 12: activity against Ustilago maydis in the microtiterplate test. The note with it: 31 ppm, DOB media pH 7.
For the next assay, the system named is Fusarium culmorum. As to the kind of experiment: Example 2: activity against Fusarium culmorum in the microtiterplate test. The note with it: 31 ppm, 7 days after inoculation, relative to active compound-free control (100%).

This is an account of results in patent publication US20240270727A1, “NEW SUBSTITUTED PYRIDINES AS FUNGICIDE” (BASF SE, priority 2021, published 2024).

The structures appear in SMILES notation.

Method for Fusarium culmorum: The stock solutions were mixed according to the ratio, pipetted onto a micro titer plate (MTP) and diluted with water to the stated concentrations. A spore suspension of Fusarium culmorum in an aqueous biomalt or yeast-bactopeptone-glycerine or DOB solution was then added. The plates were placed in a water vapor-saturated chamber at a temperature of 18° C. Using an absorption photometer, the MTPs were measured at 405 nm 7 days after the inoculation.
Method for Ustilago maydis: The stock solutions were mixed according to the ratio, pipetted onto a micro titer plate (MTP) and diluted with water to the stated concentrations. A spore suspension of the Ustilago maydis isolates in a DOB media (ph 7) was then added.

As for `Cc1cc(C2=NCCOc3ccccc32)cnc1C` [D1, reference compound], the “Growth (%) at 125 pm SEPTTR” value in the assay with Septoria tritici was found to be 98%. The “Growth (%) at 8 pm LEPTNO” value in the assay on Leptosphaeria nodorum came to 45%. In the case of `Cc1cc(C2=NC(C(C)(C)C)COc3ccccc32)cnc1C` (stereo not drawn) [Ex-1], the “growth of the pathogen” value with Botrytis cinerea and in the assay on Ustilago maydis was 0% each time.

As for `Cc1cc(C2=NCC(C)(C)Oc3ccccc32)cnc1C` [Ex-2], the “growth of the pathogen” value is reported as 0% in the assay with Botrytis cinerea and 1% with Fusarium culmorum. Moreover, the “Growth (%) at 125 pm SEPTTR” value with Septoria tritici is 51%. Besides, the “Growth (%) at 8 pm LEPTNO” value in the assay on Leptosphaeria nodorum came out at 4%. As to `Cc1cc(C2=NC(C)(C)C(C)(C)Oc3ccccc32)cnc1C` [Ex-3], the “growth of the pathogen” value with Botrytis cinerea is on record as 0%; in the assay on Fusarium culmorum, 1%. The “Growth (%) at 125 pm SEPTTR” value in the assay with Septoria tritici came out at 64%. Further, the “Growth (%) at 8 pm LEPTNO” value with Leptosphaeria nodorum is 30%.

`Cc1cc(C2=NC(C)(C)C(C)(C)Oc3ccccc32)cnc1C(F)F` [Ex-4]: in the assay with Botrytis cinerea, the “growth of the pathogen” value worked out at 0%. Take `Cc1cc(C2=NCC(C)(C)Oc3ccccc32)cnc1C(F)F` [Ex-8]: the “growth of the pathogen” value in the assay with Botrytis cinerea is 0%. On to `COCC1(C)Oc2ccccc2C(c2cnc(C)c(C)c2)=NC1(C)C` (stereo not drawn) [Ex-9], for which the “growth of the pathogen” value with Botrytis cinerea was found to be 0%. Turning to `COCC1(C)Oc2ccccc2C(c2cnc(C(F)F)c(C)c2)=NC1(C)C` (stereo not drawn) [Ex-10], the “growth of the pathogen” value with Botrytis cinerea amounted to 0%. Regarding `Cc1cc(C2=NC(C)C(C)(C)Oc3ccccc32)cnc1C` (stereo not drawn) [Ex-11], the “growth of the pathogen” value with Botrytis cinerea was determined as 0%. The “Growth (%) at 125 pm SEPTTR” value with Septoria tritici is 52%. In addition, the “Growth (%) at 8 pm LEPTNO” value in the assay on Leptosphaeria nodorum is reported as 6%. With `Cc1cc(C2=NC(C(C)(C)C)C(C)Oc3ccccc32)cnc1C` (stereo not drawn) [Ex-24], the “growth of the pathogen” value with Ustilago maydis came to 0%. Same read-out and setting: under `Cc1cc(C2=NC(=O)C3(CC3)Oc3c(F)cccc32)cnc1C(F)F` [Ex-41] stands 0%.
